# Results: patent US20090048229A1, “Methods for promoting wakefulness” (priority 2007, published 2009)
# Where two headings read alike, the source gives them in different places.
# Assays:
# AChE = AChE (Homo sapiens, UniProt P22303); format: biochemical
# BuChE = BuChE (Homo sapiens, UniProt P06276); assay: In vitro screening assay, BuChE inhibition; format: biochemical
# Description: An in vitro screening assay with various conjugates was completed according to the methods described in Ellman G L et al., Biochem Pharmacol., 7:88-95 (1961) and in Nadarajah B, J. Anal. Toxicol., 16:192-193 (1992), both of which are herein incorporated by reference in their entireties. The assay method was completed according to the following: […]
# [1] = target: T1, human recombinant acetylcholinesterase (Homo sapiens, UniProt P22303); assay: biochemical; conditions: for inhibition at 10 µM: read-out: Inhibition of AChE (%) 10 μM
# T1 construct: purchased Sigma Chemical Co (St. Louis, Mo.) C1682
# T1 sequence (P22303 32-614): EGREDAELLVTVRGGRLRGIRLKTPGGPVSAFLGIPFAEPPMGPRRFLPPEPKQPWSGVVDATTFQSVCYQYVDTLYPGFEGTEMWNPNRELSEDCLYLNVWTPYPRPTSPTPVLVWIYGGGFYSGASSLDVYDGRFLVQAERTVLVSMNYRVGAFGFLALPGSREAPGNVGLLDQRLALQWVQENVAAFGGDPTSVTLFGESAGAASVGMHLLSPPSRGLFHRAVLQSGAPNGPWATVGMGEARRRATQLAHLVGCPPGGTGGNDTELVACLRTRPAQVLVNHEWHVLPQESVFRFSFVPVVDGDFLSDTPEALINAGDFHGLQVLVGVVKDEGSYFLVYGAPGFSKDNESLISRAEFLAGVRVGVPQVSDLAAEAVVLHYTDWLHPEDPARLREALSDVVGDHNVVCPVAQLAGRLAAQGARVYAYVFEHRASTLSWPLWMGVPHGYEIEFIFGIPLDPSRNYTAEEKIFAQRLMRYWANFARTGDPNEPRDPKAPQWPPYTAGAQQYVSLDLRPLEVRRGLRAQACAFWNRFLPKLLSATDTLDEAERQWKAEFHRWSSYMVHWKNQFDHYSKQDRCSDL
# Experimental: All reagents employed in this experiment were of analytical grade. Acetylthiocholine iodide and 5,5′-dithiobis-(2-nitro)benzoic acid (DTNB) and human recombinant acetylcholinesterase (C1682) were purchased from Sigma Chemical Co (St. Louis, Mo.).
# The enzyme, compound or stigmine and buffer were preincubated for 30 minutes. At the end of the preincubation period, the substrate acetylthiocholine was added. The final assay mixture contained 10 mM Tris-buffer (pH 8), 0.3 mM Acetylthiocholine and 0.33 mM DTNB and 0.08 U/ml enzyme. At least five (5) different concentrations of the compound or stigmine were assayed per IC50 experiment.
# Hydrolysis of acetylthiocholine was monitored indirectly by measurement of the formation of the conjugate between thiocholine and DTNB.
# [2] = system: male CD IGS (Sprague Dawley derived) rats; assay: Induction of hypothermia after subcutaneous administration; format: in vivo, rat; conditions: for Induction of hypothermia MED (mg/kg s.c.): hypothermia = fall in temperature of >0.5° C.; for fall in body temperature: subcutaneous administration; for Induction of hypothermia MED (mg/kg s.c.) / Hypothermia MED / Hypothermia MED (mg/kg): s.c.; for Hypothermia MED / Hypothermia MED (mg/kg): rats
# Description: Cholinergic agonists cause hypothermia through a central mechanism of action (Freedman et al, 1989. Direct measurement of muscarinic agents in the central nervous system of mice using ex vivo binding. Eur. J. Pharmacol. 174:253-260). […] Since a premise of the present invention is that carbomyl esters would liberate the conjugated amine in the CNS only after inhibition of acetylcholinesterase, induction of hypothermia provides a useful correlation with the acetylcholinesterase inhibition detected in vitro and in vivo.
# Hypothermia was defined as a fall in temperature of >0.5° C.
# Hypothermia is a marker of CNS penetration for ACHE inhibitors.
# (§1) If less soluble, the maximum injection volume was 5 mL/kg.
# (§2) Baseline temperatures were taken just before injection.
# male Wistar rats = assay: Wake promotion (EEG/EMG sleep-wake, locomotor activity, body temperature); format: in vivo, rat; conditions: for duration of wakefulness: administered 5 hours after lights on (CT-5), FIG. 2
# Experimental: Test compounds in various dose ranges or vehicle were administered to male Wistar rats 5 hours after lights on (CT-5). EEG, EMG, locomotor activity, drink- and food-related activity, and body temperature were concurrently monitored for 30 hr before and after treatment from rats living in separate isolated recording chambers. Sleep-wake discriminations were carried out using SCORE2004™, proprietary real-time hardware and software technology of Hypnion, Inc. (Lexington, Mass.). Comparisons were made between the reference compounds: d-amphetamine, rivastigmine, modafinil, and the following carbamoyl ester test compounds: […]
# butylryl cholinesterase = butylryl cholinesterase (Homo sapiens, UniProt P06276); assay: Inhibition of butyrylcholinesterase; format: biochemical; conditions: read-out: Inhibition of BuChE (%) 10 μM
# Chain of butylryl cholinesterase (P06276 29-602): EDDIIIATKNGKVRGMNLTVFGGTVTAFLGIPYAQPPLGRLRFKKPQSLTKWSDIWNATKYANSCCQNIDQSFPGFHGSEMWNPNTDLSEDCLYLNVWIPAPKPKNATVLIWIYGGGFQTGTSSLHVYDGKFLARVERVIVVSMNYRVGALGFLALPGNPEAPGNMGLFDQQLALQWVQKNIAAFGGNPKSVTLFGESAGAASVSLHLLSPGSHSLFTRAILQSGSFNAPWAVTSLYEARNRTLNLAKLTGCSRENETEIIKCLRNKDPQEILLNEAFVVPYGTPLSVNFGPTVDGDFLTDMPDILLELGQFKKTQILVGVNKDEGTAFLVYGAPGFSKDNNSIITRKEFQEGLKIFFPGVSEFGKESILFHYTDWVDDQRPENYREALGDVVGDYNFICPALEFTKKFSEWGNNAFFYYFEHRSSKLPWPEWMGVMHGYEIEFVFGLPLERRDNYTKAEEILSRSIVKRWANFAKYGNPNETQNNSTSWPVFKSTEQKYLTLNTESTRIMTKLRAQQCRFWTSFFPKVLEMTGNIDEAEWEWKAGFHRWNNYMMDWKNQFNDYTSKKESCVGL
# Experimental: The inhibition of butylryl cholinesterase was determined using methods known in the art e.g., Alcala Molel M. et al. (2003) Characterization of the anticholinesterase activity of two new tacrin-huperzine A hybrids. Neuropharmacology, 44 (6), 749-755.
# [3] = Dose range for cholinergic effects / max tolerated dose; format: in vivo, rat; conditions: s.c., rats
# Experimental: as §1, §2
# [4] = 30 min preincubation, 25° C., read-out: Inhibition of AChE IC50
# Chain of BuChE (P06276 29-602): as above
# Chain of AChE (P22303 32-614): as the sequence (P22303 32-614) above
SMILES,IC50 [1] [nM],AChEI (%) 1 μM (AChE; 1 μM) [%],AChEI (%) 10 μM (AChE; 10 μM) [%],BuChEI (%) 10 μM (BuChE; 10 μM) [%],Max Tolerated Dose [3],also measured
"CN1CC[C@@]2(C)c3cc(OC(=O)Nc4ccccc4)ccc3N(C)[C@@H]12 [Phenserine, reference compound]",–,–,–,–,–,AChEI (%) 1 μM (AChE): 93%; AChEI (%) 10 μM (AChE): 99%; BuChEI (%) 10 μM (BuChE): 42%
"C[C@@H](c1cccc(OC(=O)N(C)CCC=C2c3ccccc3CCc3ccccc32)c1)N(C)C [Compound 5A, S-riva-nortriptyline]",500,81,99,55,–,BuChEI (%) 1 μM (BuChE; 1 μM): 24%
"C[C@@H](c1cccc(OC(=O)N(C)[C@@H](C)Cc2ccccc2)c1)N(C)C [Compound 13, S-riva-d-methamphetamine]",–,51,97,95,–,"IC50 [1, 4]: 1100 nM; inhibition at 10 µM [1]: 97%; Induction of hypothermia MED (mg/kg s.c.) [2]: 10 mg/kg s.c.; fall in body temperature [2]: dose-related-related fall in body temperature; BuChEI (%) 1 μM (BuChE; 1 μM): 25%; duration of wakefulness (male Wistar rats): dose-related increase in wakefulness; inhibition at 10 µM (butylryl cholinesterase): 95%"
"C#CCN(C(=O)Oc1ccc2c(c1)[C@]1(C)CCN(C)[C@@H]1N2C)[C@H](C)Cc1ccccc1 [Compound 18, Physo-desmethylselegiline]",–,–,37,8,–,–
"CN[C@@H](C)Cc1ccccc1 [d-methamphetamine, reference compound]",–,–,–,–,–,locomotor hyperactivity / stimulant activity (male Wistar rats; FIG. 5): locomotor hyperactivity
"C[C@@H](c1cccc(OC(=O)N(C)CCC(Oc2ccc(C(F)(F)F)cc2)c2ccccc2)c1)N(C)C (some centres unmarked) [Compound 7A, S-riva-fluoxetine]",4800,11,76,15,≧100,Hypothermia MED [2]: 3 mg/kg
"C#CCN(C(=O)Oc1cccc([C@H](C)N(C)C)c1)[C@H](C)Cc1ccccc1 [Compound 11, S-riva-desmethylselegiline]",–,13,52,17,–,–
"C[C@@H](c1cccc(OC(=O)N[C@H]2C[C@@H]2c2ccccc2)c1)N(C)C (stereo in doubt) [Compound 2, S-riva-tranylcypromine]",200,84,97,67,30,Hypothermia MED [2]: 10 mg/kg; BuChEI (%) 1 μM (BuChE; 1 μM): 23%
"CC(CC1CCCCC1)N(C)C(=O)Oc1cccc([C@H](C)N(C)C)c1 (some centres unmarked) [Compound 16, S-riva-propylhexedrine]",900,–,–,–,≧100,Hypothermia MED [2]: 10 mg/kg
"COc1ccccc1CC(C)N(C)C(=O)Oc1cccc([C@H](C)N(C)C)c1 (some centres unmarked) [Compound 15, S-riva-methoxyphenamine]",1100,49,95,30,–,inhibition at 10 µM [1]: 95%; inhibition at 10 µM (butylryl cholinesterase): 30%
"C[C@@H](c1cccc(OC(=O)N2CCN(C3=Nc4ccccc4Oc4ccc(Cl)cc43)CC2)c1)N(C)C [Compound 3, S-riva-amoxapine]",20900,–,16,6,≧100,Hypothermia MED [2]: 10 mg/kg
"CCN(C)C(=O)Oc1cccc([C@H](C)N(C)C)c1 [Compound 1, S-rivastigmine, reference compound]",–,–,–,–,10,Hypothermia MED (mg/kg) [2]: ≦0.1 mg/kg; Induction of hypothermia MED (mg/kg s.c.) [2]: ≦0.1 mg/kg s.c.; fall in body temperature [2]: dose-related-related fall in body temperature; BuChEI (%) 1 μM (BuChE): 45%; BuChEI (%) 10 μM (BuChE): 100%; rebound hypersomnolence (male Wistar rats; FIG. 3): rebound hypersomnolence; duration of wakefulness (male Wistar rats): increased wakefulness; inhibition at 10 µM (butylryl cholinesterase): 100%
"C[C@@H](c1cccc(OC(=O)N(C)CCCN2c3ccccc3CCc3ccccc32)c1)N(C)C [Compound 4, S-riva-desipramine]",200,91,99,60,≧100,Hypothermia MED [2]: 3 mg/kg; BuChEI (%) 1 μM (BuChE; 1 μM): 16%
"C[C@@H](c1cccc(OC(=O)N2CC[C@@H](c3ccc(F)cc3)[C@H](COc3ccc4c(c3)OCO4)C2)c1)N(C)C [Compound 9A, S-riva-paroxetine]",9500,9,69,4,–,–
"C#CCN(C(=O)Oc1cccc([C@@H](C)N(C)C)c1)[C@H](C)Cc1ccccc1 [Compound 17, R-riva-desmethylselegiline]",–,–,31,12,–,–
"C[C@H](N)Cc1ccccc1 [d-amphetamine, reference compound]",–,–,–,–,–,effect on body temperature (male Wistar rats; FIG. 4): increase in body temperature (hyperthermia); duration of wakefulness (male Wistar rats): increased the duration of wakefulness
"C[C@@H](c1cccc(OC(=O)N(C)CC[C@H](Oc2cccc3ccccc23)c2cccs2)c1)N(C)C [Compound 10, S-riva-duloxetine]",200 to 500,88,100,36,–,–
"C[C@@H](Cc1ccccc1)NC(=O)Oc1cccc([C@H](C)N(C)C)c1 [Compound 20, S-riva-d-amphetamine]",–,35,76,20,–,"IC50 [1, 4]: 3100 nM; inhibition at 10 µM [1]: 76%; Induction of hypothermia MED (mg/kg s.c.) [2]: ≦1 mg/kg s.c.; fall in body temperature [2]: dose-related-related fall in body temperature; duration of wakefulness (male Wistar rats): dose-related increase in wakefulness; inhibition at 10 µM (butylryl cholinesterase): 20%"
"C[C@@H](c1cccc(OC(=O)N(C)CCCC2c3ccccc3C=Cc3ccccc32)c1)N(C)C [Compound 6, S-riva-protriptyline]",500,81,99,53,>100,Hypothermia MED [2]: 100 mg/kg; BuChEI (%) 1 μM (BuChE; 1 μM): 16%
"COCCCC/C(=N\OCCNC(=O)Oc1cccc([C@H](C)N(C)C)c1)c1ccc(C(F)(F)F)cc1 [Compound 8, S-riva-fluvoxamine]",6100,17,76,6,–,–
"Cc1ccccc1O[C@H](CCN(C)C(=O)Oc1cccc([C@H](C)N(C)C)c1)c1ccccc1 [Compound 5, S-riva-atomoxetine]",–,29,89,14,≧100,Hypothermia MED (mg/kg) [2]: ≦1 mg/kg
"C[C@@H](Cc1ccccc1)NC(=O)Oc1ccc2c(c1)[C@]1(C)CCN(C)[C@@H]1N2C [Compound 14, Physo-d-amphetamine]",–,45,94,28,–,inhibition at 10 µM [1]: 94%; inhibition at 10 µM (butylryl cholinesterase): 28%
"NC(=O)C[S+]([O-])C(c1ccccc1)c1ccccc1 (centres unmarked) [modafinil, reference compound]",–,–,–,–,–,duration of wakefulness (male Wistar rats): increased the duration of wakefulness
